Molecular target: T1, Pyruvate kinase M2 (PKM2) (Mus musculus, UniProt P52480)
T1 construct: gene Pkm; full length recombinant mouse PKM2 (M2 isoform; pET-28a, from pLHCX-Flag-mPKM2)
Test: LC-MS/MS peptide mapping of the covalent adduct on recombinant PKM2; competition with biotin probe; pyruvate kinase activity assay (IC50)
Type: biochemical

T1 sequence (P52480 whole entry, canonical isoform): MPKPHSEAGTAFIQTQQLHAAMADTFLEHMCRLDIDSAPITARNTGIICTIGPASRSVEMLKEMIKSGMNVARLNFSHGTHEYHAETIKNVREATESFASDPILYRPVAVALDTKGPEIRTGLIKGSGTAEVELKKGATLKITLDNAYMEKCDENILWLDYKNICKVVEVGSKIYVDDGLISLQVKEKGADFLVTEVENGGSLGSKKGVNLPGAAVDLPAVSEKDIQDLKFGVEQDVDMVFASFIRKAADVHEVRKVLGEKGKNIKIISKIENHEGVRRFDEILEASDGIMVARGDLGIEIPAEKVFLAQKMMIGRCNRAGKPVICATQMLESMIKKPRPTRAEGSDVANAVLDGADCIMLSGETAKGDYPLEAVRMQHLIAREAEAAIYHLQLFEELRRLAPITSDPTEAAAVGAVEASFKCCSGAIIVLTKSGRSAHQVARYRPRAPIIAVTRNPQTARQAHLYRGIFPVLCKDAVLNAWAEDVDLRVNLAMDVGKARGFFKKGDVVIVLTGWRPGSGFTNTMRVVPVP

For `CC1=C(O)C(=O)C=C2C1=CC=C1[C@@]2(C)CC[C@@]2(C)[C@@H]3C[C@](C)(C(=O)O)CC[C@]3(C)CC[C@]12C` [celastrol], the IC50 was 305 µM.

Source: PMC9461663, “Covalent Inhibition of Pyruvate Kinase M2 Reprograms Metabolic and Inflammatory Pathways in Hepatic Macrophages against Non-alcoholic Fatty Liver Disease” (International Journal of Biological Sciences, 2022)
